Patent publication US20240277693A1, “A PHARMACEUTICAL PRODUCT CONTAINING TASQUINIMOD AND A METHOD FOR ASSESSING THE PURITY OF SAID PRODUCT” (ACTIVE BIOTECH AB, priority 2021, published 2024)
Values belong to the compound of their own block, whether it stands above or below them.

What was measured:
[1] = Drug product stability studies (general observations); type: physicochemical
From the text: In a drug product, compound I is formed with compound II from hydrolysis of tasquinimod. […] Compound II is further decarboxylated to form compound III.
Compound III is the decarboxylated species formed from the degradation of compound II.
The mechanism for formation of compound IV in a drug product is unknown.

[2] = Stability testing of capsules at 25° C./60% RH in water impermeable blister pack; type: physicochemical
From the text: In some embodiments, the method disclosed herein comprises storing (keeping) a sample of the pharmaceutical product for a period of time, preferably under selected conditions of temperature and humidity. The amount (or concentration) of tasquinimod and of at least one of compounds I, II, III and IV in the sample may preferably be determined at the beginning or before the storage period and at the end of the storage period. The selected storage conditions may include a temperature in the range of, for example, 20° C. to 40° C., and a relative humidity in the surrounding atmosphere in the range of, for example, 30% to 75%; e.g. 25° C. and 60% RH, or 30° C. and 65% RH, or 35° C. and 70% RH, or 40° C. and 75% RH. The storage period may extend over a time period in the range of, for example, several weeks to several years. For example, the stability testing period (“storage period”) may be 2 weeks, 3 weeks, 1 month, 2 months, 3 months, 4 months, 5 months, 6 months, 9 months, 1 year, 18 months, 2 years, 3 years, 4 years or even 5 years or longer. A shorter storage period may be selected by use of higher storage temperature and/or higher relative humidity (RH). The total amount of a tasquinimod decomposition product in the sample at the end of the storage period may be determined by, for example, HPLC.
The batch of capsules manufactured in Example 19 was assessed by determining the amount of tasquinimod and the amount of each one of compounds I, II, III and IV in a sample of the capsules at the end of a 3-month stability testing, whereby the criterion for approving the batch was that the capsules of the sample, at the end of the 3-month stability testing, contain a total amount of compounds I-IV of not more than 5.0% w/w, relative to the amount of tasquinimod in the capsules. The stability testing consisted of keeping the capsules, in a water impermeable blister pack, at 25° C./60% RH. At the end of the stability testing, the capsules contained 0.06% w/w of compound I, less than 0.05% w/w of compound II, 0.10% of compound III and less than 0.05% w/w of compound IV, relative to the amount of tasquinimod (determined to be 0.246 mg/capsule), viz. in total less than 0.26% w/w of compounds I-IV relative to the amount of tasquinimod. Therefore, according to the selected criterion for approval, the batch of capsules was determined to be suitable for distribution.
The obtained batch of capsules was subjected to multiple assessments, viz. a first assessment comprising determining the amount of tasquinimod and the amount of compounds I, II, III and IV in a sample of the capsules directly after manufacturing, whereby the selected criterion for approving the batch for distribution was that the capsules of the sample, in a water impermeable blister pack, contain not more than in total 5% w/w of compounds I-IV relative to the amount of tasquinimod, followed by eight further, independent assessments, by determining the amount of tasquinimod and the amount of each one of compounds I, II, III and IV in a sample of the capsules at the end of a period of stability testing (by keeping the capsules, in a water impermeable blister pack, at 25° C./60% RH) of 3, 6, 9, 12, 18, 24, 36 and 48 months, respectively, whereby each time the criterion for approving the batch was that the capsules of the sample, at the end of each period of stability testing, contain a total amount of compounds I-IV of not more than 5.0% w/w, relative to the amount of tasquinimod in the capsules.

[3] = 0.25 mg capsules of Example 19, 3 months
[4] = 0.25 mg capsules of Example 19, 6 months
[5] = 0.25 mg capsules of Example 19, 9 months
[6] = 0.25 mg capsules of Example 19, 12 months
[7] = 0.25 mg capsules of Example 19, 18 months
[8] = 0.25 mg capsules of Example 19, 24 months
[9] = 0.25 mg capsules of Example 19, 36 months
[10] = 0.25 mg capsules of Example 19, 48 months
[11] = 0.5 mg capsules of Example 28, 3 months
[12] = 0.5 mg capsules of Example 28, 6 months
[13] = 0.5 mg capsules of Example 28, 9 months
[14] = 0.5 mg capsules of Example 28, 12 months
[15] = 0.5 mg capsules of Example 28, 18 months
[16] = 0.5 mg capsules of Example 28, 24 months
[17] = 0.5 mg capsules of Example 28, 36 months
[18] = 0.5 mg capsules of Example 28, 48 months
[19] = 1.0 mg capsules of Example 29, 3 months
[20] = 1.0 mg capsules of Example 29, 6 months
[21] = 1.0 mg capsules of Example 29, 9 months
[22] = 1.0 mg capsules of Example 29, 12 months
[23] = 1.0 mg capsules of Example 29, 18 months
[24] = 1.0 mg capsules of Example 29, 24 months
[25] = 1.0 mg capsules of Example 29, 36 months
[26] = 1.0 mg capsules of Example 29, 48 months

change of the amount of the compound in tasquinimod drug product on storage [1]: increase under any conditions
amount of decomposition product (each of compounds I-IV) in capsules, relative to the amount of tasquinimod [2, 3]: 0.10 % w/w
amount of decomposition product (each of compounds I-IV) in capsules, relative to the amount of tasquinimod [2, 4]: 0.16 % w/w
amount of decomposition product (each of compounds I-IV) in capsules, relative to the amount of tasquinimod [2, 5]: 0.21 % w/w
amount of decomposition product (each of compounds I-IV) in capsules, relative to the amount of tasquinimod [2, 6]: 0.26 % w/w
amount of decomposition product (each of compounds I-IV) in capsules, relative to the amount of tasquinimod [2, 7]: 0.35 % w/w
amount of decomposition product (each of compounds I-IV) in capsules, relative to the amount of tasquinimod [2, 8]: 0.41 % w/w
amount of decomposition product (each of compounds I-IV) in capsules, relative to the amount of tasquinimod [2, 9]: 0.57 % w/w
amount of decomposition product (each of compounds I-IV) in capsules, relative to the amount of tasquinimod [2, 10]: 0.79 % w/w
Decomposition products (% w/w), relative to the amount of tasquinimod in capsule [2, 11]: 0.05 % w/w
Decomposition products (% w/w), relative to the amount of tasquinimod in capsule [2, 12]: 0.09 % w/w
Decomposition products (% w/w), relative to the amount of tasquinimod in capsule [2, 13]: 0.11 % w/w
Decomposition products (% w/w), relative to the amount of tasquinimod in capsule [2, 14]: 0.13 % w/w
Decomposition products (% w/w), relative to the amount of tasquinimod in capsule [2, 15]: 0.16 % w/w
Decomposition products (% w/w), relative to the amount of tasquinimod in capsule [2, 16]: 0.19 % w/w
Decomposition products (% w/w), relative to the amount of tasquinimod in capsule [2, 17]: 0.27 % w/w
Decomposition products (% w/w), relative to the amount of tasquinimod in capsule [2, 18]: 0.36 % w/w
Decomposition products (% w/w), relative to the amount of tasquinimod in capsule [2, 19]: <0.05 % w/w
Decomposition products (% w/w), relative to the amount of tasquinimod in capsule [2, 20]: <0.05 % w/w
Decomposition products (% w/w), relative to the amount of tasquinimod in capsule [2, 21]: <0.05 % w/w
Decomposition products (% w/w), relative to the amount of tasquinimod in capsule [2, 22]: 0.06 % w/w
Decomposition products (% w/w), relative to the amount of tasquinimod in capsule [2, 23]: 0.09 % w/w
Decomposition products (% w/w), relative to the amount of tasquinimod in capsule [2, 24]: 0.10 % w/w
Decomposition products (% w/w), relative to the amount of tasquinimod in capsule [2, 25]: 0.15 % w/w
Decomposition products (% w/w), relative to the amount of tasquinimod in capsule [2, 26]: 0.18 % w/w
Structure (SMILES): COc1cccc2c1c(O)cc(=O)n2C [Compound III, 4-hydroxy-5-methoxy-1-methylquinolin-2(1H)-one]

amount of tasquinimod in capsules [2, 3]: 0.246 mg/capsule
amount of tasquinimod in capsules [2, 4]: 0.243 mg/capsule
amount of tasquinimod in capsules [2, 5]: 0.243 mg/capsule
amount of tasquinimod in capsules [2, 6]: 0.245 mg/capsule
amount of tasquinimod in capsules [2, 7]: 0.245 mg/capsule
amount of tasquinimod in capsules [2, 8]: 0.237 mg/capsule
amount of tasquinimod in capsules [2, 9]: 0.237 mg/capsule
amount of tasquinimod in capsules [2, 10]: 0.238 mg/capsule
Tasquinimod (mg/capsule) [2, 11]: 0.501 mg/capsule
Tasquinimod (mg/capsule) [2, 12]: 0.497 mg/capsule
Tasquinimod (mg/capsule) [2, 13]: 0.504 mg/capsule
Tasquinimod (mg/capsule) [2, 14]: 0.500 mg/capsule
Tasquinimod (mg/capsule) [2, 15]: 0.501 mg/capsule
Tasquinimod (mg/capsule) [2, 16]: 0.486 mg/capsule
Tasquinimod (mg/capsule) [2, 17]: 0.490 mg/capsule
Tasquinimod (mg/capsule) [2, 18]: 0.494 mg/capsule
Tasquinimod (mg/capsule) [2, 19]: 0.989 mg/capsule
Tasquinimod (mg/capsule) [2, 20]: 0.988 mg/capsule
Tasquinimod (mg/capsule) [2, 21]: 1.007 mg/capsule
Tasquinimod (mg/capsule) [2, 22]: 0.992 mg/capsule
Tasquinimod (mg/capsule) [2, 23]: 0.982 mg/capsule
Tasquinimod (mg/capsule) [2, 24]: 0.997 mg/capsule
Tasquinimod (mg/capsule) [2, 25]: 1.000 mg/capsule
Tasquinimod (mg/capsule) [2, 26]: 0.987 mg/capsule
Structure (SMILES): COc1cccc2c1c(O)c(C(=O)N(C)c1ccc(C(F)(F)F)cc1)c(=O)n2C [Tasquinimod, 4-hydroxy-5-methoxy-N, 1-dimethyl-2-oxo-N-[4-(trifluoromethyl)phenyl]-1,2-dihydroquinoline-3-carboxamide]
